The values that follow come from patent US11807627B2, “Morphic forms of complement factor D inhibitors” (priority 2018, dated 2023).

Like-named read-outs stand apart in the source and are kept apart here.

The solubility is the dissolved amount per volume that the medium holds.

What all share (type): physicochemical
Data set [1] is described as follows: Interconversion experiments: competitive slurries (Example 2, Table 6). The protocol:
A solution of Compound 3 and solvent/solvent system of interest was prepared. Solids persisted in solution. The samples were placed onto a stir plate at ambient (RT) or elevated (ET) temperatures. The samples were monitored to ensure that solids persisted during the slurry process. The solids were collected via vacuum filtration and dried under ambient conditions. […] At ambient temperature, Forms B and M are both present after almost a week of slurrying.

Data set [2] can be described thus: Vapor stress experiments at room temperature. The source says:
Compound 3 was placed into vials which were sealed into chambers containing organic solvents. The samples were kept under these conditions for a period of days and then checked for signs of morphology changes.

The nature of data set [3]: Interconversion experiments: heat stress of forms (Table 6). The following applies: no solvent. The protocol:
Saturated solutions of Compound 3 or solids generated from crystallization attempts were prepared. A small quantity of the sample was placed into an oven set at a specified temperature. The samples were monitored, microscopically, for signs of crystallization.

Data set [4] in a line: Drying of isolated samples at 50° C. for approximately 24 hours. How it is done:
Samples produced from thermal cycling, cooling and evaporation experiments were dried at 50° C. for approximately 24 hours to assess any de-solvation/dehydration. From temperature cycling experiments, 3 samples converted upon drying: • Acetonitrile sample converted from Form J to amorphous; • 40% Ethanol/60% Water (% v/v) converted from Form N to Form P; and • Methanol sample converted from Form O to amorphous.

The nature of data set [5]: Thermogravimetric/differential thermal analysis (TG/DTA). The note with it: Table 22B. The protocol:
Approximately, 5 mg of material was weighed into an open aluminium pan and loaded into a simultaneous thermogravimetric/differential thermal analyzer (TG/DTA) and held at room temperature. The sample was then heated at a rate of 10° C./min from 20° C. to 400° C. during which time the change in sample weight occurred was recorded along with any differential thermal events (DTA). Nitrogen was used as the purge gas at a flow rate of 300 cm^3/min.

Data set [6] is described as follows: Storage stability of Compound 3 forms (80° C., 40° C./75% RH, 25° C./60% RH, ambient). The note with it: 40° C./75% RH or 25° C./60% RH, capped or uncapped vial. How it is done: No changes by XRPD or HPLC purity were observed when the material was stored at 40° C./75% RH, 80° C. or under ambient conditions.
The nature of data set [7]: Solvent solubility screen by solvent addition (lyophilized material). The note with it: thermodynamic from solid. The protocol:
A solvent solubility screen was conducted using 32 solvent systems. Approximately 360 mg of Compound 3 Form A was weighed into a 20 mL glass vial and dissolved using 18 mL of 1,4-dioxane. 0.5 mL of the solution was then dispensed into thirty-four 2 mL glass vials (approx. 10 mg per vial). The Compound 3 Form A solutions were then frozen (at −50° C.) and dried by lyophilization using a Lablyo mini freeze drier. Post-lyophilization, a sub-sample was taken and analyzed by XRPD. Material was successfully rendered amorphous by lyophilization.
The material produced from lyophilization was used for the solubility assessment. Solubility was estimated by a solvent addition technique. The solubility study was completed as follows: • Each solvent system was added to the appropriate vial in 5 volume aliquots until 100 volumes had been added or until the API dissolved; • Between each addition, samples were heated to 40° C. to check dissolution at elevated temperatures; • If 100 volumes of solvent were added without dissolution, solubility was calculated to be below this point.

For `CC(=O)c1nn(CC(=O)N2[C@H](C(=O)Nc3nc(Br)ccc3C)C[C@@]3(C)C[C@@H]23)c2ccc(-c3cnc(C)nc3)cc12` [A vs. B], the “Interconversion: XRPD Result after slurry” value in data set [1] (ACN, RT Slurry) is given as “Form E”; in data set [1] (EtOAc, RT Slurry) it was “Form B”; in data set [1] (EtOAc, ~50° C. Slurry), “Form B”.
With `CC(=O)c1nn(CC(=O)N2[C@H](C(=O)Nc3nc(Br)ccc3C)C[C@@]3(C)C[C@@H]23)c2ccc(-c3cnc(C)nc3)cc12` [A, B, G], in data set [1] (EtOAc, RT Slurry), the “Interconversion: XRPD Result after slurry” value is recorded as “Form B”.
As for `CC(=O)c1nn(CC(=O)N2[C@H](C(=O)Nc3nc(Br)ccc3C)C[C@@]3(C)C[C@@H]23)c2ccc(-c3cnc(C)nc3)cc12` [B, G, M], the “Interconversion: XRPD Result after slurry” value in data set [1] (EtOAc, ~50° C. Slurry) is on record as “Form M*”.
With `CC(=O)c1nn(CC(=O)N2[C@H](C(=O)Nc3nc(Br)ccc3C)C[C@@]3(C)C[C@@H]23)c2ccc(-c3cnc(C)nc3)cc12` [Disordered], the “Vapor stress: XRPD Result” value in data set [2] (EtOAc vapor) is listed as “Form B”; in data set [2] (MTBE vapor) it was “Form C”.
Regarding `CC(=O)c1nn(CC(=O)N2[C@H](C(=O)Nc3nc(Br)ccc3C)C[C@@]3(C)C[C@@H]23)c2ccc(-c3cnc(C)nc3)cc12` [Form C], the “Interconversion: XRPD Result after heating” value in data set [3] (~50° C.) is given as “Form C”.
On the same count and under the same terms, the entry for `CC(=O)c1nn(CC(=O)N2[C@H](C(=O)Nc3nc(Br)ccc3C)C[C@@]3(C)C[C@@H]23)c2ccc(-c3cnc(C)nc3)cc12` [Form E] is “Form G”; for `CC(=O)c1nn(CC(=O)N2[C@H](C(=O)Nc3nc(Br)ccc3C)C[C@@]3(C)C[C@@H]23)c2ccc(-c3cnc(C)nc3)cc12` [Form F + C] it is “Form F + C”.
Take `CC(=O)c1nn(CC(=O)N2[C@H](C(=O)Nc3nc(Br)ccc3C)C[C@@]3(C)C[C@@H]23)c2ccc(-c3cnc(C)nc3)cc12` [Form G]: the entries for the “Interconversion: XRPD Result after heating” value in data set [3] (~50° C.) and in data set [3] (~160° C.) were “Form G” and “Form M”, respectively.
Take `CC(=O)c1nn(CC(=O)N2[C@H](C(=O)Nc3nc(Br)ccc3C)C[C@@]3(C)C[C@@H]23)c2ccc(-c3cnc(C)nc3)cc12` [Form J + Form L]: the “Interconversion: XRPD Result after heating” value in data set [3] (~50° C.) is “Form G”.
For the compound `CC(=O)c1nn(CC(=O)N2[C@H](C(=O)Nc3nc(Br)ccc3C)C[C@@]3(C)C[C@@H]23)c2ccc(-c3cnc(C)nc3)cc12` [Form M], the “Relative stability in competitive slurry” value in data set [1] (Forms B and M, approximately 50° C.) was “most stable”.
`CC(=O)c1nn(CC(=O)N2[C@H](C(=O)Nc3nc(Br)ccc3C)C[C@@]3(C)C[C@@H]23)c2ccc(-c3cnc(C)nc3)cc12` [Form N]: the “Form after drying (de-solvation/dehydration)” value in data set [4] was “Form P”. Besides, the “Onset Temp: Weak thermal events” value in data set [5] is “onset of 134.7 °C”.
`CC(=O)c1nn(CC(=O)N2[C@H](C(=O)Nc3nc(Br)ccc3C)C[C@@]3(C)C[C@@H]23)c2ccc(-c3cnc(C)nc3)cc12` [Form O]: in data set [4], the “Form after drying (de-solvation/dehydration)” value is on record as “amorphous”. The “Onset Temp: Melting” value in data set [5] (listed as Pattern O) is “Melting 179.6 °C”.
Turning to `CC(=O)c1nn(CC(=O)N2[C@H](C(=O)Nc3nc(Br)ccc3C)C[C@@]3(C)C[C@@H]23)c2ccc(-c3cnc(C)nc3)cc12` [Lyophilized Compound 3], the “Stability: recrystallization upon storage” value in data set [6] is “no recrystallization”. The solubility in data set [7] (2-propanol/heptane mixtures, organic solvent or mixture, 2-propanol, 95% 2-propanol/5% heptane, 70% 2-propanol/30% heptane, toluene, elevated temperatures (40° C.), read-out: Solubility (solvent addition), dissolution at elevated temperatures) is over 200 mg/mL; in data set [7] (organic solvent or mixture, 1,4-dioxane, 1-butanol, 2-methyl THF, 95% 2-propanol/5% water, acetone, acetonitrile, 95% acetonitrile/5% water, chloroform, DCM, DMSO, ethyl acetate (dry), ethanol, isopropyl acetate, methanol, MEK, MIBK, DMF, DMA, THF, 95% methanol/5% water, read-out: Solubility (solvent addition)), at least 200 mg/mL; in data set [7] (organic solvent or mixture, 50% 2-propanol/50% heptane and 50% ethanol/50% heptane (% v/v), read-out: Solubility (solvent addition)), over 100 mg/mL; in data set [7] (n-heptane, tert-butylmethyl ether, ethyl ether, water, 50% 2-propanol/50% water, 40% ethanol/60% water, read-out: Solubility (solvent addition)), under 10 mg/mL.
